Drawing on patent US12331046B2, “CTPS1 inhibitors and uses thereof” (Nimbus Clotho, Inc., priority 2020, dated 2025), this text covers IC50 for 33 molecules.

One may read the IC50 as the concentration that gives 50% inhibition.

In the test the target is human CTPS1 (Homo sapiens (Human), UniProt P17812). Description: hCTPS1 biochemical assay (ADP-Glo). The settings on record: hCTPS1 25 nM, ATP 120 uM, UTP 160 uM, GTP 60 uM, L-Glutamine 100 uM, 25 degrees C. On the technique in general: ADP-Glo turns the ADP formed in a reaction into a luminescent signal.
Chain of human CTPS1 (P17812 whole entry): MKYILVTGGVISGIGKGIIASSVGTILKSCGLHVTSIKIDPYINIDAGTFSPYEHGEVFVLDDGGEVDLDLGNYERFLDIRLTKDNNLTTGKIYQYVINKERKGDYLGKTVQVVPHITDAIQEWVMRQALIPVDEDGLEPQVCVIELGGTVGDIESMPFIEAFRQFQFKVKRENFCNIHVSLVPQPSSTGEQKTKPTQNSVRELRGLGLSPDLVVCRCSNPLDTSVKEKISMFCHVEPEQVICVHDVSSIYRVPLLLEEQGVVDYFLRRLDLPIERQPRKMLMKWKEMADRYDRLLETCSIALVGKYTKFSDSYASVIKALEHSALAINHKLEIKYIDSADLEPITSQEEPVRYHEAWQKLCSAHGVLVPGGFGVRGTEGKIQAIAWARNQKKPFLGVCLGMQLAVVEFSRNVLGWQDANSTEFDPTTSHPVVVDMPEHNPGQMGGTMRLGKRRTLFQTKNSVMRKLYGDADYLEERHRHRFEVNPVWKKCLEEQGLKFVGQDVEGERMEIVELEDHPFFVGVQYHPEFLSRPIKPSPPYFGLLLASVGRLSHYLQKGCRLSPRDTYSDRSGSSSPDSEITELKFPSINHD
In turn, `CCOc1cncc(-c2cnc(C(=O)N[C@@H](CN3CCN(C4CC4)CC3)c3cc(NS(=O)(=O)C4CC4)ccn3)s2)n1` (single isomer, unassigned) [I-119] gave a half-maximal inhibitory concentration (IC50) below 100 nM.

As for `CCOc1cncc(-c2cnc(C(=O)N[C@H](CN3CCN(C4CC4)CC3)c3cc(NS(=O)(=O)C4CC4)ccn3)s2)n1` (single isomer, unassigned) [I-120], the IC50 is below 100 nM.

Take `CCOc1cncc(-c2cnc(C(=O)N[C@H](CN3CCN(C(C)C)CC3)c3cc(NS(=O)(=O)C4CC4)ccn3)s2)n1` (single isomer, unassigned) [I-121]: the concentration for half-maximal inhibition (IC50) was below 100 nM.

Molecule `CCOc1cncc(-c2cnc(C(=O)N[C@H](CCN(C)C)c3c(F)ccc(NS(=O)(=O)C4CC4)c3F)s2)n1` (single isomer, unassigned) [I-124] came in with a concentration for half-maximal inhibition (IC50) of at least 1000 nM.

Consider `CCOc1cncc(-c2cnc(C(=O)N[C@@H](CCN(C)C)c3c(F)ccc(NS(=O)(=O)C4CC4)c3F)s2)n1` (single isomer, unassigned) [I-125], for which the IC50 was at least 1000 nM.

Turning to `CCOc1cncc(-c2cnc(C(=O)N[C@@H](C[C@@H]3CCCCN3C)c3cc(NS(=O)(=O)C4CC4)ccn3)s2)n1` (single isomer, unassigned) [I-134], the half-maximal inhibitory concentration (IC50) was 100 to 1000 nM.

For `CCOc1cncc(-c2cnc(C(=O)N[C@H](C[C@@H]3CCCCN3C)c3cc(NS(=O)(=O)C4CC4)ccn3)s2)n1` (single isomer, unassigned) [I-136], the IC50 was below 100 nM.

As for `CCOc1cncc(-c2cnc(C(=O)N[C@@H](C[C@H]3CCCCN3)c3cc(NS(=O)(=O)C4CC4)ccn3)s2)n1` (single isomer, unassigned) [I-138], the IC50 was below 100 nM.

The molecule `CCOc1cncc(-c2cnc(C(=O)N[C@@H](C[C@@H]3CCCCN3)c3cc(NS(=O)(=O)C4CC4)ccn3)s2)n1` (single isomer, unassigned) [I-139] yielded an IC50 below 100 nM.

On to `CCOc1cncc(-c2cnc(C(=O)N[C@H](C[C@@H]3CCCCN3)c3cc(NS(=O)(=O)C4CC4)ccn3)s2)n1` (single isomer, unassigned) [I-141], for which the IC50 was below 100 nM.

`CCOc1cncc(-c2cnc(C(=O)N[C@H](CCN(C)C)c3cccc(NS(=O)(=O)C4CC4)c3)s2)n1` (single isomer, unassigned) [I-143] gave a 50% inhibitory concentration (IC50) of at least 1000 nM.

In turn, `CCOc1cncc(-c2cnc(C(=O)N[C@@H](CCN(C)C)c3cccc(NS(=O)(=O)C4CC4)c3)s2)n1` (single isomer, unassigned) [I-144] displayed a half-inhibitory concentration (IC50) below 100 nM.

In the case of `CCOc1cncc(-c2cnc(C(=O)N[C@@H](CN3CCN(C)CC3)c3cc(NS(=O)(=O)C4CC4)ccn3)s2)n1` (single isomer, unassigned) [I-191], the half-inhibitory concentration (IC50) was below 100 nM.

`CCOc1cncc(-c2cnc(C(=O)N[C@H](CN3CCN(C)CC3)c3cc(NS(=O)(=O)C4CC4)ccn3)s2)n1` (single isomer, unassigned) [I-192] displayed a 50% inhibitory concentration (IC50) below 100 nM.

For `CCOc1cncc(-c2cnc(C(=O)N[C@@H](CN3CC(F)C3)c3cc(NS(=O)(=O)C4CC4)ccn3)s2)n1` (single isomer, unassigned) [I-203], the IC50 is below 100 nM.

For the molecule `CCOc1cncc(-c2cnc(C(=O)N[C@H](CN3CC(F)C3)c3cc(NS(=O)(=O)C4CC4)ccn3)s2)n1` (single isomer, unassigned) [I-204], the half-maximal inhibitory concentration (IC50) is below 100 nM.

Regarding `CCOc1cncc(-c2cnc(C(=O)N[C@H](CN3CCCCC3)c3cc(NS(=O)(=O)C4CC4)ccn3)s2)n1` (single isomer, unassigned) [I-213], the IC50 was below 100 nM.

`CCOc1cncc(-c2cnc(C(=O)N[C@@H](CN3CCCCC3)c3cc(NS(=O)(=O)C4CC4)ccn3)s2)n1` (single isomer, unassigned) [I-214] returned a half-inhibitory concentration (IC50) below 100 nM.

Turning to `CCOc1cncc(-c2cnc(C(=O)N[C@@H](CN3CCC3)c3cc(NS(=O)(=O)C4CC4)ccn3)s2)n1` (single isomer, unassigned) [I-221], the IC50 is 100 to 1000 nM.

In turn, `CCOc1cncc(-c2cnc(C(=O)N[C@H](CN3CCC3)c3cc(NS(=O)(=O)C4CC4)ccn3)s2)n1` (single isomer, unassigned) [I-222] returned a 50% inhibitory concentration (IC50) below 100 nM.

The molecule `CCOc1cncc(-c2cnc(C(=O)N[C@H](CN(C)C)c3cc(NS(=O)(=O)C4CC4)ccn3)s2)n1` (single isomer, unassigned) [I-233] returned a concentration for half-maximal inhibition (IC50) below 100 nM.

Molecule `CCOc1cncc(-c2cnc(C(=O)N[C@@H](CN(C)C)c3cc(NS(=O)(=O)C4CC4)ccn3)s2)n1` (single isomer, unassigned) [I-234] registered a half-inhibitory concentration (IC50) below 100 nM.

`CCOc1cncc(-c2cnc(C(=O)N[C@@H](CN3CCOCC3)c3cc(NS(=O)(=O)C4CC4)ccn3)s2)n1` (single isomer, unassigned) [I-235]: the IC50 is below 100 nM.

As for `CCOc1cncc(-c2cnc(C(=O)N[C@H](CN3CCOCC3)c3cc(NS(=O)(=O)C4CC4)ccn3)s2)n1` (single isomer, unassigned) [I-236], the IC50 is below 100 nM.

With `CCOc1cncc(-c2ccc3c(c2)CN(C(CC)c2csc(NS(=O)(=O)C4CC4)n2)C3=O)n1` (stereo in doubt) [I-12, (R)—N-(4-(1-(5-(6-ethoxypyrazin-2-yl)-1-oxoisoindolin-2-yl)propyl)thiazol-2-yl)cyclopropanesulfonamide], the 50% inhibitory concentration (IC50) was below 100 nM.

In the case of `CCOc1cncc(-c2ccc3c(c2)CN(C(CC)c2csc(NS(=O)(=O)C4CC4)n2)C3=O)n1` (stereo in doubt) [I-12a, (S)—N-(4-(1-(5-(6-ethoxypyrazin-2-yl)-1-oxoisoindolin-2-yl)propyl)thiazol-2-yl)cyclopropanesulfonamide], the IC50 fell in the range of 100 to 1000 nM.

`CCOc1cncc(-c2ccc(C(=O)N3CCCC3c3ccnc(NS(=O)(=O)C4CC4)n3)nc2)n1` (stereo in doubt) [I-34, N-[4-[(2S)-1-[5-(6-ethoxypyrazin-2-yl)pyridine-2-carbonyl]pyrrolidin-2-yl]pyrimidin-2-yl]cyclopropanesulfonamide] had an IC50 below 100 nM.

For `CO[C@H]1CCN(c2cncc(-c3ccc(C(=O)NCc4cc(NS(=O)(=O)C5CC5)ccn4)cc3)n2)C1` (stereo in doubt) [I-45], the IC50 is at least 1000 nM.

On to `CCOc1cncc(-c2ccc(C(=O)N3CCCC3c3ccnc(NS(=O)(=O)C4CC4)n3)nc2)n1` (stereo in doubt) [I-47, N-[4-[(2R)-1-[5-(6-ethoxypyrazin-2-yl)pyridine-2-carbonyl]pyrrolidin-2-yl]pyrimidin-2-yl]cyclopropanesulfonamide], for which the half-inhibitory concentration (IC50) was at least 1000 nM.

Turning to `O=C(NC1(c2csc(NS(=O)(=O)C3CC3)n2)CC1)c1ccc2ccccc2c1` [I-1, N-(1-(2-(cyclopropanesulfonamido)thiazol-4-yl)cyclopropyl)-2-naphthamide], the half-maximal inhibitory concentration (IC50) lay within 100 to 1000 nM.

On to `O=C(NC1(c2csc(NS(=O)(=O)C3CC3)n2)CC1)c1ccc2ccccc2n1` [I-2, N-(1-(2-(cyclopropanesulfonamido)thiazol-4-yl)cyclopropyl)quinoline-2-carboxamide], for which the IC50 is at least 1000 nM.

For the molecule `O=C(NC1(c2csc(NS(=O)(=O)C3CC3)n2)CC1)c1cc2ccccc2cn1` [I-3, N-(1-(2-(cyclopropanesulfonamido)thiazol-4-yl)cyclopropyl)isoquinoline-3-carboxamide], the IC50 is at least 1000 nM.

For the molecule `O=C(NC1(c2csc(NS(=O)(=O)C3CC3)n2)CC1)c1ccc2cnccc2c1` [I-4, N-(1-(2-(cyclopropanesulfonamido)thiazol-4-yl)cyclopropyl)isoquinoline-6-carboxamide], the concentration for half-maximal inhibition (IC50) was at least 1000 nM.
